Experiment in all cases: NCI-60 cell line screen, 48 h
Assay [1] deals with BT-549 breast.
The test system of assay [2] is CAKI-1 renal.
The test system of assay [3] is HL-60(TB) leukemia.
Assay [4] has as its system M14 melanoma.
For assay [5], the system named is NCI-H460 lung.
The test system of assay [6] is OVCAR-5 ovarian.
Assay [7] deals with PC-3 prostate.
The test system of assay [8] is SF-268 CNS.
In assay [9] the test system is SK-MEL-5 melanoma.
Assay [10] has as its system SK-OV-3 ovarian.

Several values for one entry are separate records, joined by “and”; a condition that tells them apart may be missing. Equal entries are not always repeated.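 Test compounds were applied to cells in 96-well plates for 48 hours at 5 doses. Here, GI50 denotes the concentration required for 50% inhibition of growth. TGI is the concentration that stops growth completely.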

As to `Cc1cn2c(/C=N/N=C(N)N)c(-c3cccnc3)nc2s1`, the GI50 is 12.8 µM in assay [1]; 8.07 µM in assay [2]; 3.8 µM in [3]; 10 µM in assay [4]; 14.7 µM in [5]; 15.2 µM in assay [6]. The GI50 in assay [7] was 6.95 µM; in assay [8], 12.9 µM; in assay [9] it was 2.68 µM; in assay [10] it was 15.9 µM. Moreover, the TGI in [1] amounted to 30.9 µM; in [2], 22.4 µM; in assay [3] it was 53.8 µM; in [4], 23.5 µM; in [5] it was 76.6 µM; in assay [6], 28.5 µM. In addition, the TGI in assay [7] turned out to be 24.7 µM; in assay [8], 35.8 µM; in assay [9], 13.7 µM; in [10], 33.3 µM.

Regarding `NC1=NCCN1CC(=O)O`, the GI50 in [1] was > 10000 µM; in [4] it was > 10000 µM; in assay [5] it was > 10000 µM; in [6], > 10000 µM; in [7] it was > 10000 µM; in assay [8], > 1000 µM. Besides, the GI50 in [9] and in assay [10] was > 10000 µM throughout. The TGI in [1] is > 10000 µM; in [2] it was > 10000 µM; in [3], > 1000 µM; in [4], > 10000 µM; in assay [5] it was > 10000 µM; in assay [6], > 10000 µM. For the same compound, the TGI in [7], in [8], in assay [9] and in assay [10] was > 10000 µM throughout.

On to `C/C(=C\COc1c2c(cc3c1CCO3)OC1(C=C2)OC(CC/C(C)=C/COc2c3ccoc3cc3oc(=O)ccc23)C(C)(C)O1)CCC(O)C(C)(C)O` (configuration not stated), for which the GI50 in assay [1] was 16.7 µM; in [2], 8.07 µM; in assay [3], 3.61 µM; in assay [4], 85.1 µM; in [5], 9.65 µM; in [6], 80.2 µM. In addition, the GI50 in assay [7] is 6.56 µM; in [8] it was 21.1 µM; in assay [9], 8.85 µM; in assay [10] it was > 100 µM. Also, the TGI was > 100 µM in assay [1]; > 100 µM in assay [2]; 20.9 µM in assay [3]; > 100 µM in [4]; > 100 µM in [5]; > 100 µM in assay [6]. In addition, the TGI in assay [7], in assay [8], in assay [9] and in [10] was > 100 µM throughout.

`O=C(NCc1ccncc1)C12CC3CC(C1)CC(c1ccc(Cl)cc1)(C3)C2`: the GI50 in [1] was 10.6 µM; in assay [2], 11.9 µM; in [3] it was 5.58 µM; in assay [4], 12.7 µM; in assay [5] it was 14.8 µM; in [6] it was 14 µM. Besides, the GI50 in [7] is 8.86 µM; in assay [8], 13.7 µM; in assay [9] it was 5.7 µM; in assay [10], 12.5 µM. Moreover, the TGI in assay [1] worked out at 26.4 µM; in assay [2], 24.9 µM; in assay [3], 27.1 µM; in assay [4], 26.9 µM; in assay [5], 28.6 µM; in [6], 28.7 µM. Further, the TGI in [7] was determined as 23.1 µM; in assay [8] it was 29.5 µM; in assay [9], 18.3 µM; in assay [10], 25.2 µM.

For `COc1ccc(OC)c(-c2cc(=O)c3c(OC)c(OC)c(OC)c(OC)c3o2)c1`, the TGI in assay [1], in [2], in assay [3], in assay [4], in assay [5] and in assay [6] was > 100 µM throughout. The TGI is > 100 µM in assay [8], 39.1 µM in assay [9] and 98.7 µM in [10].

Turning to `CC/C(=C(/c1ccc(O)cc1)c1ccc(OCCN2CCCCC2)cc1)c1ccc(OC)cc1`, the GI50 was 1.6 µM in [1]; 1.99 µM in [3]; 1.73 µM in assay [4]; 2.17 µM in assay [5]; 3.25 µM in assay [6]; 1.41 µM in assay [7]. Moreover, the GI50 in [8] was 2.14 µM; in assay [9], 1.79 µM; in assay [10] it was 14 µM. In addition, the TGI was 3.19 µM in assay [1]; 4.1 µM in [3]; 3.38 µM in assay [4]; 4.72 µM in assay [5]; 14.8 µM in assay [6]; 3.34 µM in [7]. In addition, the results for the TGI in assay [8], in [9] and in assay [10] were 6.38 µM, 3.21 µM and 27.3 µM, respectively.

With `S=c1nc(Cl)cc2[nH]c(Cl)cn12`, the TGI in assay [1], in [2], in assay [4], in [5], in assay [7] and in assay [8] was > 100 µM each time. The values for the TGI in assay [9] and in [10] were 17.5 µM and 8.4 µM, respectively.

As for `OCC1OC(n2cnc3c(Cl)nc(Cl)cc32)C(O)C1O` (configuration not stated), the GI50 in [1], in assay [2], in assay [3], in [4], in assay [5] and in assay [6] was > 100 µM each time. In addition, the GI50 in [7], in [8] and in assay [10] was > 100 µM in each case. The TGI in assay [1], in [2], in assay [3], in assay [4], in assay [5] and in assay [6] was > 100 µM in each case. Also, the TGI in [7], in [8] and in [10] was > 100 µM each time.

On to `C[C@H](CCCNCCCNCCCN)[C@H]1CC[C@H]2[C@@H]3[C@H](OCCCN)C[C@H]4C[C@H](OCCCN)CC[C@]4(C)[C@H]3C[C@H](OCCCN)[C@]12C`, for which the GI50 was 0.923 µM in assay [1]; 16 µM in assay [2]; 0.874 µM in [4]; 4.72 µM in assay [5]; 17.5 µM in [6]; 18.3 µM in assay [7]. In addition, the GI50 in assay [8] is 1.54 µM; in [9], 0.626 µM; in [10] it was 35.7 µM. The TGI in assay [1] is 5.1 µM; in assay [2], > 100 µM; in assay [4] it was 3.88 µM; in assay [5], > 34.7 µM; in assay [6], > 100 µM; in assay [7], > 100 µM. For the same compound, the TGI in assay [8] is 16.1 µM; in assay [9], 3.29 µM; in assay [10], > 100 µM.

Consider `COc1ccc2nc3ccccc3c(NCCCN(C)CCCl)c2c1`, for which the TGI in [1] worked out at 2.57 µM; in assay [2], 1.62 µM; in assay [4], 2.33 µM; in [5], 1.07 µM; in assay [6], 3.4 µM; in assay [7] it was 1.6 µM. The figures for the TGI in assay [8], in [9] and in assay [10] were 2.75 µM, 1.59 µM and 3.34 µM, respectively.

Regarding `Cc1ncsc1-c1ccc(CNC(=O)[C@@H]2C[C@@H](O)CN2C(=O)[C@@H](NC(=O)C2(C#N)CC2)C(C)(C)C)cc1`, the GI50 in [1] was > 100 µM; in assay [2] it was 82 µM; in assay [3], > 100 µM; in assay [5] it was > 100 µM; in [6] it was > 100 µM; in assay [7], > 100 µM. In addition, the GI50 in assay [8], in assay [9] and in assay [10] was > 100 µM in each case. Further, the TGI in [1], in assay [2], in assay [3], in [5], in [6] and in [7] was > 100 µM in each case. In addition, the TGI in assay [8], in assay [9] and in assay [10] was > 100 µM in each case.

For `O=C(/C(=C/c1ccc([N+](=O)[O-])cc1)SCc1ccc(F)cc1)c1ccc(Cl)cc1`, the GI50 in [1] is 3.38 µM; in assay [3], 4.33 µM; in assay [4], 3.91 µM; in assay [5] it was 19 µM; in assay [6], 12.7 µM; in assay [7], 3.93 µM. For the same compound, the GI50 in [8] is 9.44 µM; in assay [9] it was 4.33 µM; in assay [10], 37.1 µM. Moreover, the TGI in assay [1] is 16.4 µM; in assay [3], 40.4 µM; in assay [4], 20.2 µM; in assay [5], > 100 µM; in assay [6], 38.9 µM; in assay [7], 16.2 µM. Besides, the figures for the TGI in assay [8], in [9] and in assay [10] were 33.5 µM, 15.2 µM and > 100 µM, respectively.

With `O=C(NN=C1CCCCC1)c1[nH]c2ccc(F)cc2c1-c1ccccc1`, the GI50 in assay [1] is 57.4 µM; in [2], 34.5 µM; in [3], 18.2 µM; in [5], 22 µM; in assay [6], 45.6 µM; in [7], 52.1 µM. The values for the GI50 in assay [8], in [9] and in assay [10] were 18.9 µM, 34.3 µM and 35.1 µM, respectively. The TGI is > 100 µM in [1]; > 100 µM in [2]; 52.7 µM in assay [3]; 50.8 µM in assay [5]; > 100 µM in [6]; > 100 µM in assay [7]. Also, the TGI in assay [8], in assay [9] and in [10] was > 100 µM throughout.

Turning to `C/C(=C(\c1ccc(OCCN2CCCCCC2)cc1)c1ccc(OC(=O)Cc2ccccc2)cc1)c1ccc(Cl)cc1`, the GI50 in assay [1] is 2.2 µM; in assay [2] it was 2.74 µM; in [3], 3.5 µM; in [4], 1.87 µM; in [5] it was 2.64 µM; in assay [6], 2.77 µM. Besides, the GI50 is 2.84 µM in assay [8], 2.36 µM in assay [9] and 4.87 µM in assay [10]. Further, the TGI came out at 4.58 µM in [1]; 5.37 µM in assay [2]; 8.17 µM in assay [3]; 4.15 µM in assay [4]; 5.2 µM in [5]; 6.45 µM in assay [6]. Moreover, the TGI was 6.11 µM in [8], 4.58 µM in assay [9] and 15.6 µM in assay [10].

On to `COc1cc(OC)c(NC(=O)c2cc3ccccc3cc2O)cc1Cl`, for which the GI50 in assay [1] was 4.33 µM; in assay [2] it was 1.9 µM; in assay [3] it was 1.91 µM; in [4] it was 3.03 µM; in assay [5], 2.43 µM; in assay [6], 4.7 µM. Moreover, the GI50 in assay [7] was 2.13 µM; in assay [8], 3.66 µM; in assay [9], 2.4 µM. Moreover, the TGI in [1] was found to be 66 µM; in assay [2] it was 6.68 µM; in [3], 7.99 µM; in [4] it was 13.1 µM; in assay [5] it was 5.82 µM; in [6], 34.5 µM. In addition, the TGI came to 8.02 µM in assay [7], 33.4 µM in assay [8] and 6.34 µM in assay [9].

As for `CN(C)CCOC(c1ccccc1)c1ccccc1`, the GI50 is 33.7 µM in assay [1]; 38.2 µM in [2]; 15.3 µM in assay [4]; 26.2 µM in [5]; 36.7 µM in [6]; 15.7 µM in [9]. Moreover, the GI50 in assay [10] is 40.6 µM. The TGI is 48.4 µM in [1]; 52.6 µM and > 100 µM in assay [2]; > 100 µM in assay [3]; 23.9 µM and > 100 µM in assay [4]; 46 µM and > 100 µM in assay [5]; 52.4 µM and > 100 µM in [6]. For the same compound, the TGI in assay [7] is 44.4 µM and > 100 µM; in assay [9], 28.2 µM and > 100 µM; in assay [10], 54.8 µM.

With `COc1ccc(CNc2nc3cc(N)cc(N)c3nc2-c2ccccc2)cc1`, the GI50 in assay [1] was 6.52 µM; in assay [2] it was 16.3 µM; in assay [3] it was 13.6 µM; in [4], 18.1 µM; in assay [5], 20.5 µM; in assay [6], 20.8 µM. For the same compound, the GI50 in assay [7] is 10.3 µM; in assay [8] it was 9.79 µM; in [9] it was 17.6 µM. Besides, the TGI in [1] was determined as 30.7 µM; in assay [2] it was 35.9 µM; in [3], 51.3 µM; in assay [4], 32.2 µM; in [5], 48.4 µM; in assay [6] it was 46.2 µM. Further, the TGI in assay [7] was found to be 27.3 µM; in assay [8], 22 µM; in assay [9] it was 31.4 µM.

The values above are taken from PubChem BioAssay (NCI).
